In patent publication US20230181553A1, “COMPOSITION FOR HAIR IMPROVEMENT” (Dr. Cherry Inc., priority 2020, published 2023):

Key:
Type in all cases: in vivo, human
[1] = test system: hair thinning; assay: Scalp improvement effect in nine regions in androgenetic alopecia patients (rating of hair growth effect); conditions: four AGA male patients, oral 5 mg once a day, 2 months
From the text: In this example, the scalp was divided into nine regions to observe the effect of the treatment therein. In this manner, even when each patient has both a good portion (portion having a large hair volume) and a poor portion (portion having a small hair volume), influence on the good portion and influence on the poor portion can be separately evaluated, and thus, it can be expected that highly accurate evaluation can be realized. Subjects were four androgenetic alopecia (AGA) male patients (of 42 to 63 years old) having aggravated as compared with a state 1 year ago. Two patients out of these patients had continuously taken Finasteride, an anti-androgen agent, respectively from 4 years ago and 7 years ago, and continuously took it after starting the following treatment. In this example, pioglitazone, that is a PPARγ agonist, was orally administered to these patients. […] A photograph of each patient taken from directly above 10 to 12 months before starting the treatment of this example, a photograph taken on the day of starting the treatment, and a photograph taken after 2 months from the start of the treatment were evaluated. […] A hair growth effect was evaluated by the 5 medical specialists in accordance with the following rating. […]

[2] = test system: scalp; assay: Change in hair thickness after application of pioglitazone suspension to half side of the scalp with electroporation
Experimental: As pioglitazone, a 15 mg pioglitazone tablet “NP” was used. One pioglitazone tablet was ground in a mortar, and the resultant was suspended in 3 mL of water for injection PL “FUSO” for use. Subjects were three female patients (patients). In each of the patients, lines were extended from both outer canthi toward the head, two points on these lines crossing a line extended between the both ears through the vertex were tattooed with an India ink, and a portion around the marked center was photographed under the same conditions. A suspension of pioglitazone was applied to the entire of half side of the scalp. In order to increase penetration, pioglitazone was caused to penetrate through the skin with META-TDS, Electroporation Machine (CTP-802, Grand Aespio Inc., Korea) at an output of 3 V/6 mA {actually measured value}. This treatment was performed at a frequency of once every two weeks 12 times (namely, for 6 months). The test sites were away from the midline of the head by 51 mm on average on both left and right sides. After 6 months from the start of the treatment (after performing the treatment 12 times), Dermo Prime, dpharris (CHOWIS, Korea) was used to import data of two images of each test site into a computer as digital images, and in each image, three hairs having the largest thickness (6 hairs in two images of each test site) were selected to automatically measure the thickness. An average value of the tested values (hair thickness: mm) was used for graphing. Specifically, assuming that the thickness before the treatment was 100, the thickness after the treatment was indicated as a rate. Regarding a patient group in which the treatment was performed on a half side, a difference between before and after the treatment and a difference between the left and right-side portions were compared.

[3] = test system: hair cuticle; assay: Hair quality evaluation of hair cuticle by scanning electron microscope
From the text: The hair of the group administered with PG (administered twice a month) of Example 3 was collected, and in consideration of the growing rate (15 mm/month) of the hair of the patient, a portion corresponding to a period 2 months to 3 months (about 2.5 months) before the treatment and a portion corresponding to a period 4 months to 5 months (about 4.5 months) after starting the treatment were collected to be hermetically stored respectively in Ziploc(R). Thereafter, hair of a test site was adhesively fixed on a fixing plate with a resin. The resultant was hermetically stored, and on test day, was subjected to carbon fixation, and a state of hair cuticle was observed by an ordinary method with a scanning electron microscope on the same day. As a negative control, hair of the same patient in a portion not treated (untreated in the half side treatment) was used. Then, a portion of the hair newly grown (on the root side) and an existing portion (on the tip side) were compared with each other. A representative example is illustrated in FIG. 2. The same evaluation was performed on a larger number of patients (three patients[…]) (15 mg of PG, administered twice a month, administration 12 times in total, 6 months). The evaluation was performed 20 days after the final administration based on an electron microscope image in accordance with the following rating. The evaluation was performed by 6 doctors. An average of ratings was obtained. 5: Cuticle is aligned, and is not rough at all. 4: Cuticle is aligned than average, but is slightly rough. 3: Cuticle is aligned averagely. 2: Cuticle is rough than average, and is slightly peeled. […] Cuticle is rough as a whole, and is peeled as a whole.

[4] = test system: white hair; assay: Change in white hair (trichogram) after oral pioglitazone; conditions: oral 15 mg once every day for 6 months
Experimental: As pioglitazone, a 15 mg pioglitazone tablet “NP” was used. Each patient took one tablet containing 15 mg of pioglitazone around 10 o'clock in the morning once every day. Subjects were four patients ([…]). In each of the patients, lines were extended from both outer canthi toward the head, two points on these lines crossing a line extended between the both ears through the vertex were tattooed with an India ink, and a portion around the marked center was photographed under the same conditions. The patient had no white hair in a specific portion at the start, a temporal portion on the line extending between the both ears was tattooed with an Indian ink, and a portion around the marked center was photographed under the same conditions. Pioglitazone was taken continuously for 6 months, and the same test was performed every two months. For trichogram, a portion around the marked center was photographed (Canon Powder Shot […], Tokyo, Japan), and hair within a circle having a diameter of 11 mm (area: 95 mm^2) around the tattooed portion set as a center in an imaging range was photographed in two directions, and the number was visually counted to obtain an average of the two photographs.

[5] = treated side relative to untreated side

## CCc1ccc(CCOc2ccc(CC3SC(=O)NC3=O)cc2)nc1 (stereo not shown) [pioglitazone]
[1]
  hair thinning in a site having a high degree of aggravation: trends toward improvement were observed
[1]; rating by 5 medical specialists, FIG. 7B
  progress of hair thinning: the progress of hair thinning was at least stopped
[2]; 15 mg tablet suspended in 3 mL water, half side of scalp, once every two weeks 12 times, 1 month to 6 months after treatment, three female patients
  hair thickness on treated side compared with negative control: increased in the thickness
[2]; half side treatment, 6 months, FIG. 1 lower panel
  change rate of hair thickness on treated side vs change rate in negative control: higher than the change rate obtained in the negative control
[2]; modification of the scalp with pioglitazone
  growing rate of hair (particularly anagen-stage hair): improvement of a growing rate of hair
[3]; Treated Side, rating 1-5 (5: cuticle aligned, not rough at all), average of 6 doctors, three patients, 15 mg PG twice a month, 12 times, 20 days after final administration
  hair quality rating, Root: 3.7
[3]; Treated Side, rating 1-5, average of 6 doctors, three patients, 15 mg PG twice a month, 12 times, 20 days after final administration
  hair quality rating, Tip: 2.6
[3]; treated hair, PG twice a month, representative example FIG. 2
  state of hair cuticle, newly grown portion (root side) vs tip side: the hair quality was obviously improved
[3]; [5]
  Degree of Improvement, Root: 1.12
  Degree of Improvement, Tip: 1.0
[4]; n = 3
  decrease in number of white hairs, number before administration assumed 100: 23.2%
  decrease of white hair, average: 12.7 hairs/95 mm^2
[4]; three patients having white hair before the treatment
  change in white hair in shaved portion: the white hair was decreased
